Experimental findings from PubChem BioAssay AID1322 (NMMLSC, 2008) are described below.

Activity calls are given as the source filed them. No rule for the calls is given here.

In one assay the target is Bcl-2-like protein 1 (Homo sapiens) (UniProt Q07817). The experiment in a line: Bim-Bcl-XL interaction inhibitors, potency, dose response, biochemical, multiplexed, bead flow cytometry, human Bcl-XL (AID 1322). As to inhibition: test concentration not given here. Conditions: Bead-based flow cytometry, Bim peptide-Bcl-XL binding, MCF. On the technique in general: Flow cytometry measures light scatter and fluorescence of single cells or particles in a stream.
Bcl-2-like protein 1 (Homo sapiens), sequence (Q07817 whole entry, looked up): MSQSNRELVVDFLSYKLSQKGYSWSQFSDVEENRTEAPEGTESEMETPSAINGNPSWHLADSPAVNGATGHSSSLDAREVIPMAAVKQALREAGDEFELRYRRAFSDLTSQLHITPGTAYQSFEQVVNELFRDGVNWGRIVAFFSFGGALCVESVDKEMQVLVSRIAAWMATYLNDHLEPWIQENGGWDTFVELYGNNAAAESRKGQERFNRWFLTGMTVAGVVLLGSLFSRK
For `CCOC(=O)C1=C(CC)Nc2ccccc2N=C1NC(=O)c1ccc(S(=O)(=O)N2CCOCC2)cc1`, the result was inactive. With `CCN1/C(=C\c2ccc3cc(C)ccc3[n+]2CC)Sc2cc(C)c(C)cc21`, the outcome was inactive.

`COc1cc(/C=N/Nc2nc3c(c(=O)n(C)c(=O)n3C)n2Cc2ccccc2)ccc1OC(=O)c1ccco1`: the outcome was inactive.

The assay is the same for the next values; noted with them: Bead-based flow cytometry, Bim peptide-Bcl-XL binding, MCF.
As to `COc1ccc2c3c(cccc13)N(C)N=C2C`, the inhibition entry was “inactive”. As to `COc1ccc(CC(=O)Nc2ccc3nc(C)sc3c2)cc1OC`, the inhibition result was “inactive”. As to `CCN(CC)c1ccc(NC(=O)COc2ccccc2C#N)cc1S(=O)(=O)Nc1ccccc1OC`, the inhibition result is “inactive”. In the case of `O=C(N/N=C/c1ccncc1)c1cccc(NC(=O)c2ccccc2Cl)c1`, the inhibition entry was “inactive”.

As for `CCOc1ccc(NCc2ccccc2OCc2cccc(F)c2)cc1`, the inhibition entry is “inactive”. For `CN1CCS/C1=C/C=C1/SC(=S)N(Cc2ccccc2)C1=O`, the inhibition entry is “inactive”. For the compound `Cc1cccc(-c2nnc3n2N=C(c2ccccc2)CS3)c1`, the inhibition entry was “inactive”. Still for that read-out and setting: as for `Nc1ccccc1N=c1ssnc1Cl`, the entry is “inactive”; as for `O=C(Nc1ccccc1)c1ccc2nc(-c3ccco3)c(-c3ccco3)nc2c1`, “inactive”. On to `Cc1cc(-c2csc(N)n2)c(C)n1C`, for which the inhibition entry is “inactive”.

Regarding `COc1ccc(C2=Nn3c(nnc3-c3ccccn3)SC2)cc1OC`, the inhibition entry was “inactive”. For `C=CCn1c(SCC(=O)Nc2ccc3c(c2)OCO3)nnc1-c1cc(Br)ccc1O`, the inhibition entry is “inactive”. For `COP(=O)(CC(=O)O)c1ccccc1` (stereo not given), the inhibition entry was “inactive”. With `Cc1ccc(-c2cc(-c3ccccc3)c(C#N)c(N)n2)o1`, the inhibition entry is “inactive”. Turning to `O=C1NCCN1C(=O)N(c1ccccc1)c1ccccc1`, the inhibition result was “inactive”. The same measure, in the same setting: as for `COc1ccc(CN(C)CC(=O)NC(C)c2ccccc2)c(OC)c1` (stereo not given), the entry is “inactive”; as for `O=C(Nc1ccccn1)c1cc2ccccc2o1`, “inactive”; as for `Cc1cc(NC(=O)CCCC(=O)NCc2ccccc2)no1`, “inactive”.

For `Cc1cc(C)nc(SCc2cc(=O)c(OC(=O)c3cccc([N+](=O)[O-])c3)co2)n1`, the inhibition entry was “inactive”. In the case of `COc1ccc(-c2nnc(SCC(=O)Nc3nc4ccccc4s3)n2C)cc1`, the inhibition result is “inactive”. Still for that read-out and setting: the same measure for `COc1cccc(NC(=O)CSc2nncn2N)c1`: “inactive”.

Turning to `O=C(NC1=C(NC2CCS(=O)(=O)C2)C(=O)c2ccccc2C1=O)c1ccccc1` (stereo not given), the inhibition entry was “inactive”. For `O=C(/C=C/c1c(F)cccc1Cl)Nc1ccncc1`, the inhibition result is “inactive”. As to `O=C1/C(=C\c2ccco2)NC(=S)N1c1ccccc1`, the inhibition entry is “inactive”. Take `Cc1c(N=C2C=CC(=O)c3ccccc32)c(=O)n(-c2ccccc2)n1C`: the inhibition entry is “inactive”. `COc1ccc(NC(=O)C2=C(C)NC(=O)NC2c2cccc(OC)c2OC)c(OC)c1` (stereo not given): the inhibition result is “inactive”. Regarding `N#Cc1cccc(N=c2ssnc2Cl)c1`, the inhibition result was “inactive”.
